Reference: patent US5162328A, “N-[3-[2-(1H-imidazol-1-yl)ethoxy]phenyl]-4-(2-thienyl)-2-pyrimidinamine and pharmacologically acceptable salts” (American Cyanamid Company, priority 1991, dated 1992)
Where two headings read alike, the source gives them in different places.

Experiment: Pharmacokinetics in dogs (plasma concentration by HPLC)
Type: in vivo, dog (beagle)
Settings: dog; for concentration at 0.5 h / concentration at 1 h / concentration at 2 h / concentration at 4 h / concentration at 7 h / concentration at 12 h / AUC(0-t) / Cmax / Tmax / half-life / AUC(0-inf): plasma, po, 2 mg/kg/day, 2 mg/kg/day PO; for AUC(0-inf): read-out: AUCO- (to infinite time)
Protocol: Since dogs are used in toxicology studies of antiasthma compounds, this species is chosen for pharmacokinetic evaluations. Use of the dog permits the pharmacokinetic comparison of 2 or more compounds in the same test animal, an evaluation which could not be conveniently performed in a smaller species. For each test compound, normal dogs are given a dose of 2.0 mg/kg/day for 5 consecutive days. There is a washout period of 1 month between the study of each of the test compounds in the same four dogs. Each test compound is administered as a solution of 5 mg/ml in either 0.05 or 0.1N HCl which is dispensed into a gelatin capsule immediately prior to dosage.
Heparinized blood samples are obtained from each animal on the first, third and fifth day of dosage at 0.5, 1.0, 2.0, 4.0, 7.0, 12.0 and 24.0 hours after the dose. The samples are centrifuged immediately to obtain plasma which is frozen until analyzed.
Analysis of plasma is performed using High Performance Liquid Chromatography (HPLC). The analytical procedure is essentially identical for each compound. The internal standard used for N-[3-[2-(1H-imidazol-1-yl)ethoxy]phenyl]-4-(2-thienyl)2-pyrimidinamine is 2-chloro-11-(4-methyl-1-piperazinyl)dibenz[b,f][1,4]oxazepine succinate, while for 2-methyl-N^4 -[4-(4-pyridinyl)-2-pyrimidinyl]-1,4-benzenediamine dihydrochloride and N-[4-[2-(diethylamino)ethoxy]phenyl]-4-(4-pyridinyl)-2-pyrimidnamine dihydrochloride the internal standard is 7-ethoxy-coumarin. In a typical procedure, a 0.4 ml volume of acetonitrile containing internal standard is added a 0.2 ml volume of serum. The sample is mixed by vortexing and centrifuged. The clear protein free supernatent fluid is decanted into a clean tube and evaporated to dryness. The dry residue is dissolved in 0.2 ml of HPLC mobile phase and 50 ul of this solution injected. Peaks corresponding to the test compound being measured and to the internal standard compound are quantitated by their absorption of ultraviolet light at 280 nm. Each set of analytical samples is accompanied by the analysis of a group of standard dog plasma samples prepared to contain amounts of the compound being measured which encompasses the concentration range of the samples.
Four normal beagle dogs weighing between 9.2 and 10.2 Kg are used in the study.

concentration at 0.5 h (Dog 1, day 1, 0.5 h): 483 ng/mL
concentration at 1 h (Dog 1, day 1, 1 h): 595 ng/mL
concentration at 2 h (Dog 1, day 1, 2 h): 392 ng/mL
concentration at 4 h (Dog 1, day 1, 4 h): 281 ng/mL
concentration at 7 h (Dog 1, day 1, 7 h): 122 ng/mL
concentration at 12 h (Dog 1, day 1, 12 h): < 30 ng/mL
AUC(0-t) (Dog 1, day 1): 2160 ng·h/mL
Cmax (Dog 1, day 1): 595 ng/mL
Tmax (Dog 1, day 1): 1 h
half-life (Dog 1, day 1): 2.75 h
AUC(0-inf) (Dog 1, day 1): 2480 ng·h/mL
concentration at 0.5 h (Dog 1, day 3, 0.5 h): < 30 ng/mL
concentration at 1 h (Dog 1, day 3, 1 h): 125 ng/mL
concentration at 2 h (Dog 1, day 3, 2 h): 98 ng/mL
concentration at 4 h (Dog 1, day 3, 4 h): < 30 ng/mL
concentration at 7 h (Dog 1, day 3, 7 h): < 30 ng/mL
concentration at 12 h (Dog 1, day 3, 12 h): < 30 ng/mL
AUC(0-t) (Dog 1, day 3): 143 ng·h/mL
Cmax (Dog 1, day 3): 125 ng/mL
Tmax (Dog 1, day 3): 1 h
AUC(0-inf) (Dog 1, day 3): 398 ng·h/mL
concentration at 0.5 h (Dog 1, day 5, 0.5 h): 339 ng/mL
concentration at 1 h (Dog 1, day 5, 1 h): 418 ng/mL
concentration at 2 h (Dog 1, day 5, 2 h): 267 ng/mL
concentration at 4 h (Dog 1, day 5, 4 h): 112 ng/mL
concentration at 7 h (Dog 1, day 5, 7 h): < 30 ng/mL
concentration at 12 h (Dog 1, day 5, 12 h): < 30 ng/mL
AUC(0-t) (Dog 1, day 5): 996 ng·h/mL
Cmax (Dog 1, day 5): 418 ng/mL
Tmax (Dog 1, day 5): 1 h
half-life (Dog 1, day 5): 1.58 h
AUC(0-inf) (Dog 1, day 5): 1290 ng·h/mL
concentration at 0.5 h (Dog 2, day 1, 0.5 h): 185 ng/mL
concentration at 1 h (Dog 2, day 1, 1 h): 334 ng/mL
concentration at 2 h (Dog 2, day 1, 2 h): 251 ng/mL
concentration at 4 h (Dog 2, day 1, 4 h): 161 ng/mL
concentration at 7 h (Dog 2, day 1, 7 h): < 30 ng/mL
concentration at 12 h (Dog 2, day 1, 12 h): < 30 ng/mL
AUC(0-t) (Dog 2, day 1): 881 ng·h/mL
Cmax (Dog 2, day 1): 334 ng/mL
Tmax (Dog 2, day 1): 1 h
half-life (Dog 2, day 1): 2.88 h
AUC(0-inf) (Dog 2, day 1): 1300 ng·h/mL
concentration at 0.5 h (Dog 2, day 3, 0.5 h): < 30 ng/mL
concentration at 1 h (Dog 2, day 3, 1 h): 205 ng/mL
concentration at 2 h (Dog 2, day 3, 2 h): 129 ng/mL
concentration at 4 h (Dog 2, day 3, 4 h): 36 ng/mL
concentration at 7 h (Dog 2, day 3, 7 h): < 30 ng/mL
concentration at 12 h (Dog 2, day 3, 12 h): < 30 ng/mL
AUC(0-t) (Dog 2, day 3): 383 ng·h/mL
Cmax (Dog 2, day 3): 205 ng/mL
Tmax (Dog 2, day 3): 1 h
half-life (Dog 2, day 3): 1.18 h
AUC(0-inf) (Dog 2, day 3): 477 ng·h/mL
concentration at 0.5 h (Dog 2, day 5, 0.5 h): 54 ng/mL
concentration at 1 h (Dog 2, day 5, 1 h): 222 ng/mL
concentration at 2 h (Dog 2, day 5, 2 h): 149 ng/mL
concentration at 4 h (Dog 2, day 5, 4 h): 30 ng/mL
concentration at 7 h (Dog 2, day 5, 7 h): < 30 ng/mL
concentration at 12 h (Dog 2, day 5, 12 h): < 30 ng/mL
AUC(0-t) (Dog 2, day 5): 447 ng·h/mL
Cmax (Dog 2, day 5): 222 ng/mL
Tmax (Dog 2, day 5): 1 h
half-life (Dog 2, day 5): 0.99 h
AUC(0-inf) (Dog 2, day 5): 525 ng·h/mL
concentration at 0.5 h (Dog 3, day 1, 0.5 h): 97 ng/mL
concentration at 1 h (Dog 3, day 1, 1 h): 325 ng/mL
concentration at 2 h (Dog 3, day 1, 2 h): 303 ng/mL
concentration at 4 h (Dog 3, day 1, 4 h): 138 ng/mL
concentration at 7 h (Dog 3, day 1, 7 h): 45 ng/mL
concentration at 12 h (Dog 3, day 1, 12 h): < 30 ng/mL
AUC(0-t) (Dog 3, day 1): 1160 ng·h/mL
Cmax (Dog 3, day 1): 325 ng/mL
Tmax (Dog 3, day 1): 1 h
half-life (Dog 3, day 1): 1.82 h
AUC(0-inf) (Dog 3, day 1): 1280 ng·h/mL
concentration at 0.5 h (Dog 3, day 3, 0.5 h): 292 ng/mL
concentration at 1 h (Dog 3, day 3, 1 h): 350 ng/mL
concentration at 2 h (Dog 3, day 3, 2 h): 220 ng/mL
concentration at 4 h (Dog 3, day 3, 4 h): 60 ng/mL
concentration at 7 h (Dog 3, day 3, 7 h): < 30 ng/mL
concentration at 12 h (Dog 3, day 3, 12 h): < 30 ng/mL
Compound: c1cc(Nc2nccc(-c3cccs3)n2)cc(OCCn2ccnc2)c1 [N-[3-[2-(1H-imidazol-1-yl)ethoxy]phenyl]-4-(2-thienyl)-2-pyrimidinamine]
concentration in plasma over a 12 hour period (in words) (after first dose, FIG. 4): at a higher level for a longer period than the other test compounds
